Test [1] addresses Beta-1 adrenergic receptor (Rattus norvegicus, UniProt P18090).
The target of test [2] is 5-hydroxytryptamine receptor 1B (Rattus norvegicus, UniProt P28564).
Test [3] has as its target Beta-2 adrenergic receptor (Rattus norvegicus, UniProt P10608).

Bounds are passed on as bounds.

Chain of Beta-1 adrenergic receptor (P18090 whole entry): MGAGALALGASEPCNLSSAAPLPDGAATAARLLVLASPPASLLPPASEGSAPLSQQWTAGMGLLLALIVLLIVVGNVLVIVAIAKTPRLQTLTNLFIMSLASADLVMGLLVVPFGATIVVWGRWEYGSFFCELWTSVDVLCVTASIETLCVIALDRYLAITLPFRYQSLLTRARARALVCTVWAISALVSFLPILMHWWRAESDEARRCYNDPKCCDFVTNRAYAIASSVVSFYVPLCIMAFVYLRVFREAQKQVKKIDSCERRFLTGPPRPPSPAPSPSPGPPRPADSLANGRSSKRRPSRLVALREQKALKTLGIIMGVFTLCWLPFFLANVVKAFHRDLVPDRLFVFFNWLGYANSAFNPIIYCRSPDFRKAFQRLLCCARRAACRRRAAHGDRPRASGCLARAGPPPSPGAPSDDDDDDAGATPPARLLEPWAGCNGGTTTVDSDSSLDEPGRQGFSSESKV
Chain of Beta-2 adrenergic receptor (P10608 whole entry): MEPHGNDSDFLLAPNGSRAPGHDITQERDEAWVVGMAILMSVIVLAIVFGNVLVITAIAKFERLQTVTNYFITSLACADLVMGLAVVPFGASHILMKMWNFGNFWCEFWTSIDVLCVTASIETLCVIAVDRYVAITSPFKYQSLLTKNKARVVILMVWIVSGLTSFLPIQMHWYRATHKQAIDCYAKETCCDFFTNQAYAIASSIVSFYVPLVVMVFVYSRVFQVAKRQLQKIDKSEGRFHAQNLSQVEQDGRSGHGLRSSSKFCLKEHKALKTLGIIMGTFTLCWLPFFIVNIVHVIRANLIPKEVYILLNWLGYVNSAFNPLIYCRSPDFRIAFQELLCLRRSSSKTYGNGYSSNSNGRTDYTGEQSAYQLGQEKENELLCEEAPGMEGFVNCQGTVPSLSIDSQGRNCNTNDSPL
Chain of 5-hydroxytryptamine receptor 1B (P28564 whole entry): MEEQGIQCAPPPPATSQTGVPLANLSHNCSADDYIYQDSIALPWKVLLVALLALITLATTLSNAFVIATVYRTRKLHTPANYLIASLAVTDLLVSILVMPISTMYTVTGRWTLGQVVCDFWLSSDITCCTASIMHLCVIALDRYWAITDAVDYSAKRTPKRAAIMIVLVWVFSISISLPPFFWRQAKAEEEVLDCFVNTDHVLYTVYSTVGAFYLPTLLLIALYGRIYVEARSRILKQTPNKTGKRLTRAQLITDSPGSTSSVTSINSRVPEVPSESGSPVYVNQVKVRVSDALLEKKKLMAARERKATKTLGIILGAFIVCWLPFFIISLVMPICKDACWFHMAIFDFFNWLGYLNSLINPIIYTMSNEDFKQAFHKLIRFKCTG

Consider `C=CCOc1ccccc1OCC(O)CNC(C)C` (stereo not drawn), for which the Ki in test [1] is 7.76 nM; in test [2], 174 nM; in test [3] it was 9.77 nM. For `CC(C)CNCC(O)COc1cccc2ccccc12` (stereo not drawn) the same measures were 2.82 nM, 56.2 nM and 2.45 nM. `CC(C)NCC(O)c1ccc(NS(C)(=O)=O)cc1` (racemic) [Sotalol,(-)]: the Ki in test [2] was above 10000 nM. For `CC(CCc1ccccc1)NCC(O)c1ccc(O)c(C(N)=O)c1` (stereo not drawn) [2-hydroxy-5-{1-hydroxy-2-[(4-phenylbutan-2-yl)amino]ethyl}benzamide], the Ki amounted to 12 nM in test [1] and 2000 nM in test [2]. Compound `C=CCc1ccccc1OC[C@@H](O)CNC(C)C` [ALPRENOLOL,(-)] displayed a Ki in test [2] of 70.8 nM. Still for that read-out and setting: to `COCCc1ccc(OCC(O)CNC(C)C)cc1` (stereo not drawn) [Betalok] belongs above 10000 nM. `COc1ccc(OC)c([C@@H](O)[C@H](C)NC(C)(C)C)c1` [CAS_1937-89-9]: the Ki in test [1] was 3720 nM; in test [2], above 10000 nM; in test [3], 468 nM. Take `CC(C)(C)NCC(O)CSc1nc(-c2ccc(C(N)=O)s2)cs1` (stereo not drawn) [CAS_52560-77-7]: the Ki is 0.18 nM in test [1], 10.7 nM in test [2] and 0.55 nM in test [3]. For `COc1ccccc1OCCNCC(O)c1ccc(C)c(S(N)(=O)=O)c1` (stereo not drawn) [CAS_93633-92-2] the same measures were 4.37 nM, 1290 nM and 13.2 nM.

Take `Cc1ccc(OC[C@@H](O)[C@H](C)NC(C)C)c2c1CCC2` [ICI 118,551]: the results for the Ki in test [1] and in test [2] were 195 nM and 3890 nM, respectively. On to `CC(C)NCC(O)COc1cccc2[nH]ccc12` (stereo not drawn) [LB-46], for which the Ki in test [1] stood at 0.66 nM. As to `CC(=O)Nc1ccc(OCC(O)CNC(C)C)cc1` (stereo not drawn) [Practolol,(-)], the Ki was 245 nM in test [1] and above 10000 nM in test [2]. Turning to `CC(C)NC[C@H](O)COc1ccc(CCOCC2CC2)cc1` [[(2S)-3-{4-[2-(cyclopropylmethoxy)ethyl]phenoxy}-2-hydroxypropyl](propan-2-yl)amine], the Ki in test [2] is above 10000 nM. On the same count and under the same terms, then `COCCc1ccc(OC[C@H](O)CNC(C)C)cc1` [d-Metoprolol], with above 10000 nM. On the same count and under the same terms, then `COCCc1ccc(OC[C@@H](O)CNC(C)C)cc1` [l-Metoprolol], with above 10000 nM.

The Ki is a measure of affinity in units of concentration, obtained from inhibition or displacement. Higher therefore signals lower affinity.

For the origin of these results see BindingDB's records for doi:10.1254/jjp.52.195 (Niigata College of Pharmacy, 1990).
